The results in this text go back to patent publication US11319526B2, “Methods and compositions for making antibodies and antibody derivatives with reduced core fucosylation” (Seagen Inc., priority 2008, dated 2022).

The test system of assay [1] is antibody core fucosylation in CHO DG44 cell line producing h1F6. The assay is described as follows: Effect of fucose analogs on antibody core fucosylation (h1F6 from CHO DG44 culture). Type of assay: cell-based, Chinese hamster. Conditions: Cricetulus griseus, CHO-DG44, 120 h, Table 1, day 5; for inhibition at 50 µM: 50 μM fucose analog, inhibition of core fucosylation of h1F6, read-out: Inhibition at 50 μM; for inhibition at 1000 µM: 1 mM fucose analog, ND = non-core fucosylated antibody not detected due to poor antibody production or inhibition of cell growth. On the procedure:
Media was supplemented with insulin like growth factor (IGF), penicillin, streptomycin and either 1 mM or 50 μM of the fucose analog (prepared as described supra). On day 5 post inoculation, the culture was centrifuged at 13000 RPM for 5 minutes to pellet cells; antibodies were then purified from supernatant.
Antibody purification was performed by applying the conditioned media to protein A resin pre-equilibrated with 1× phosphate buffered saline (PBS), pH 7.4. After washing resin with 20 resin bed volumes of 1×PBS, antibodies were eluted with 5 resin bed volumes of Immunopure IgG elution buffer (Pierce Biotechnology, Rockford, Ill.). A 10% volume of 1M tris pH 8.0 was added to neutralize the eluted fraction.

The test system of assay [2] is CHO DG44 cell line producing h1F6. The assay is described as follows: Incorporation of fucose analogs into antibodies (h1F6 from CHO DG44 culture). It counts as cell-based, Chinese hamster. The procedure:
The effects of fucose analogs on antibody core fucosylation were tested at concentrations of […] and 1 mM as follows: A CHO DG44 cell line producing a humanized IgG1 anti-CD70 monoclonal antibody, h1F6 (see International Patent Publication WO 06/113909) was cultured at 7.5×10^5 cells per mL in 2 mLs of CHO culture media at 37°, 5% CO2 and shaking at 100 RPM in a 6 well tissue culture plate. Media was supplemented with insulin like growth factor (IGF), penicillin, streptomycin and either 1 mM or 50 μM of the fucose analog (prepared as described supra). On day 5 post inoculation, the culture was centrifuged at 13000 RPM for 5 minutes to pellet cells; antibodies were then purified from supernatant.
Antibody purification was performed by applying the conditioned media to protein A resin pre-equilibrated with 1× phosphate buffered saline (PBS), pH 7.4. After washing resin with 20 resin bed volumes of 1×PBS, antibodies were eluted with 5 resin bed volumes of Immunopure IgG elution buffer (Pierce Biotechnology, Rockford, Ill.). A 10% volume of 1M tris pH 8.0 was added to neutralize the eluted fraction. The amount of non-core fucosylated antibody produced was determined as described in Example 7.
Certain other fucose analogs were tested for their ability to be incorporated into antibodies. These fucose analogs were tested at concentrations of 50 μM and 1 mM using the methodology as described above and in Example 7.

Assay [3] deals with core fucosylation of h1F6 in CHO DG44 cell line. In words: Capillary electrophoresis of oligosaccharides of h1F6 expressed in the presence of alkynyl fucose peracetate. It counts as cell-based, Chinese hamster. The following applies: h1F6 expressed with 50 μM alkynyl fucose peracetate; β-galactosidase treated sample (FIG. 1C). On the procedure:
To determine the effect of alkynyl fucose peracetate on glycosylation of antibodies, a CHO DG44 cell line expressing a humanized IgG1 anti-CD70 monoclonal antibody, h1F6 (see International Patent Publication WO 06/113909) was cultured at 3.0×10^5 cells per mL in 30 mLs of CHO culture media at 37°, 5% CO2, by shaking at 100 RPM in 125 mL shake flasks. The CHO culture media was supplemented with insulin like growth factor (IGF), penicillin, streptomycin and either 50 or 100 μM alkynyl fucose peracetate (prepared as described in Example 1). […]
To further characterize the glycans on the h1F6 antibodies from Example 3, capillary electrophoresis was performed. […] Labeled oligosaccharides were diluted with water and analyzed by capillary electrophoresis using a Beckman Coulter PA-800 in a N-CHO coated capillary (Beckman Coulter). […] Labeled oligosaccharides were detected using laser induced fluorescence (LFI) with an excitation wavelength of 488λ. Emission fluorescence was detected at 520λ.
Samples of the antibodies were also treated with β-galactosidase to remove galactose. […] Labeled oligosaccharides were diluted with water and analyzed by capillary electrophoresis using a Beckman Coulter PA-800, in a N-CHO coated capillary (Beckman Coulter) running in 40 mM EACA, 0.2% HPMC at pH 4.5. […] Labeled oligosaccharides were detected using laser induced fluorescence (LFI) with an excitation wavelength of 488λ. […]

The test system of assay [4] is BALB/C mouse spleen cell and SP2/0 mouse myeloma cell fusion expressing a murine anti-Liv-1 antibody. In words: Antibody core fucosylation in hybridoma, BALB/C-SP2/0 fusion. It counts as cell-based. Conditions: 50 μM in Hybridoma Serum Free Media. On the procedure: Three antibody expressing hybridoma lines were tested to determine the effect of alkynyl fucose peracetate on antibody core fucosylation from these cell lines. These hybridomas were: 1) a BALB/C mouse spleen cell and a P2X63-AG 8.653 mouse myeloma cell fusion expressing the chimeric anti-ley antigen antibody BR96; 2) a BALB/C mouse spleen cell and a NS0 mouse myeloma cell fusion expressing a murine anti-Liv1 antibody; and 3) a BALB/C mouse spleen cell and a SP2/0mouse myeloma cell fusion expressing a murine anti-Liv-1 antibody. These hybridomas were cultured at 3.0×10^5 cells per mL in 30 mLs of Hybridoma Serum Free Media (Invitrogen, Carlsbad Calif.) supplemented with 50 μM alkynyl fucose peracetate at 37° C., 5% CO2 and shaking at 100 RPM in a 125 mL shake flask. Cultures were fed on day 3 with 2% volume of a feed media. On day four, the culture was split 1:4 into fresh culture media. Cultures were fed with a 6% volume of feed media on days 5, 7, 9 and 10. Conditioned media was collected when the viability of the culture dropped below 60% or on day 13 by passing culture through a 0.2 μm filter.
Antibody purification was performed by applying the conditioned media to a protein A column pre-equilibrated with 1× phosphate buffered saline (PBS), pH 7.4. […]

The subject of assay [5] is CHO DG44 cell line producing h1F6. In words: Non-core fucosylated antibody production in different culture media. Type of assay: cell-based, Chinese hamster. Conditions: 50 μM; PowerCHO versus OptiCHO media, day 5. On the procedure:
To determine the effect of different culture media on non-core fucosylated antibody production, a CHO DG44 cell line producing a humanized IgG1 anti-CD70 monoclonal antibody, h1F6 (see International Patent Publication WO 06/113909), was cultured in various media. The cells (7.5×10^5 cells per mL in 2 mLs) were cultured in PowerCHO (Lonza Group Ltd., Basil, Switzerland) or OptiCHO (Invitrogen, Carlsbad, Calif.) media CHO culture media at 37°, 5% CO2 and shaking at 100 RPM in a 6 well tissue culture plate. Media was supplemented with insulin like growth factor (IGF), penicillin, streptomycin and 50 μM alkynyl fucose peracetate. On day 5 post-inoculation, the culture was centrifuged at 13000 RPM for 5 minutes to pellet cells; antibodies were then purified from supernatant.
Antibody purification was performed by applying the conditioned media to protein A resin pre-equilibrated with 1× phosphate buffered saline (PBS), pH 7.4. After washing resin with 20 resin bed volumes of 1×PBS, antibodies were eluted with 5 resin bed volumes of Immunopure IgG elution buffer (Pierce Biotechnology, Rockford, Ill.). A 10% volume of 1M tris pH 8.0 was added to neutralize the eluted fraction. Production of non-core fucosylated antibody was determined as described in Example 7. The proportion of non-core fucosylated to core fucosylated antibody produced from each media was similar.

In general, inhibition refers to the percentage by which the read-out fell short of the control. On to `CC(=O)O[C@H]([C@H](OC(C)=O)[C@H](CBr)OC(C)=O)[C@@H](C=O)OC(C)=O` [6-bromo-fucose tetraacetate, 6-bromofucose tetraacetate], for which, in assay [1], the inhibition at 50 µM turned out to be 50% and at 1000 µM the inhibition was 80%. In addition, in assay [2] (50 uM), the “% Incorporation” value is recorded as roughly 50%. Moreover, the “% Incorporation” value in assay [2] (1 mM) is given as “(50 uM; 20% at 1 mM)”.
Consider `C#CC(OC(C)=O)[C@@H](OC(C)=O)[C@@H](OC(C)=O)[C@@H](C=O)OC(C)=O` (stereo partly shown) [Alkynyl fucose peracetate, 5-ethynylarabinose tetraacetate], for which, in assay [1], the inhibition at 50 µM was greater than 80% and the inhibition at 1000 µM is greater than 80%. Also, in assay [3], the oligosaccharide core fucosylated is on record as 6% and the oligosaccharide non-core fucosylated entry is reported as “approximately 85%”. Moreover, in assay [4], the core fucosylation entry is “inhibited”. Moreover, in assay [5], the “proportion of non-core fucosylated to core fucosylated antibody produced from each media” value is “similar”.
Regarding `C#CC[C@@H]1OC(OC(C)=O)[C@@H](OC(C)=O)[C@H](OC(C)=O)[C@@H]1OC(C)=O` (stereo partly drawn) [propargyl fucose tetraacetate, (3S,4R,5R,6S)-6-(prop-2-ynyl)-tetrahydro-2H-pyran-2,3,4,5-tetrayl tetraacetate], in assay [1], the inhibition at 50 µM was roughly 10% and the inhibition at 1000 µM lay in the range of 10 to 20%. Further, the “% Incorporation” value in assay [2] (1 mM) is reported as 80% (1 mM).
